According to ChEMBL document CHEMBL4033793, “Potent and Selective Inhibitors of Human Sirtuin 5” (J Med Chem, 2018):
Values belong to the molecule of their own block, whether it stands above or below them. Starred links: 1 amine or outer side, 2 acyl side, 3 side chain; linkers in the order of their positions; H or OH if unused. Positions of bridges follow the written chain, without caps; N, C: chain ends. Non-standard residues stand in square brackets, D forms with d. Residues, ends and D or L forms follow the SMILES beside them. X67 = O=C(O)CCNC(=S)NCCCC[C@H](N[*:1])C(=O)[*:2]; Suberoyl = O=C(CCCCCCC(=O)[*:2])[*:1]; β3hR = N=C(N)NCCC[C@H](N)CC(=O)O

Experiments:
[1] = biological target: T1, NAD-dependent protein deacylase sirtuin-5, mitochondrial (Homo sapiens, UniProt Q9NXA8); experiment: Inhibition of recombinant human N-terminal His-tagged SIRT5 (34 to 269 residues) expressed in Escherichia coli Transetta(DE3) cells using Benzyl Lys(Succinyl)-AMC substrate after 2 hrs by fluorescence assay
T1 sequence (Q9NXA8 whole entry, the tested form may be a part): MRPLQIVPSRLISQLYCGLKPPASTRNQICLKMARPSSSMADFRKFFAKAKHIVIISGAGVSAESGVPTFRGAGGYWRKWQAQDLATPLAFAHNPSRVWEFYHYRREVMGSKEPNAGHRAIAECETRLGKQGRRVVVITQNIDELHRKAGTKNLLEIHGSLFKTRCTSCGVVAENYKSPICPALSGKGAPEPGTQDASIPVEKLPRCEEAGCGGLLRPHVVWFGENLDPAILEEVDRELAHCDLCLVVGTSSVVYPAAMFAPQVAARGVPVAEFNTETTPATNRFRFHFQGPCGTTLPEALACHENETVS

[2] = biological target: T1, NAD-dependent protein deacylase sirtuin-5, mitochondrial; experiment: Inhibition of human recombinant N-terminal Strep2-tagged SIRT5 expressed in Escherichia coli BL21 (DE3) using Abz-GVLK(glutaryl)AY(NO2)GV-NH2 as substrate in presence of NAD+ by fluorescence assay
[3] = biological target: T1, NAD-dependent protein deacylase sirtuin-5, mitochondrial; experiment: Inhibition of SIRT5 (unknown origin) using GGQSLK[succ]FGKG as substrate after 30 mins
[4] = biological target: T1, NAD-dependent protein deacylase sirtuin-5, mitochondrial; experiment: Inhibition of human SIRT5

IC50 [1]: 5.6 µM
SMILES: N#C/C(=C\c1ccc(-c2ccc(C(=O)O)cc2)o1)C(=O)Nc1ccc(C#N)c(F)c1

IC50 [2]: 453 µM
IC50 [3]: 0.1 µM
SMILES: O=C1c2c(O)cccc2Cc2cccc(O)c21 [ANTHRALIN]

IC50 [4]: 7.5 µM
SMILES: CC(=O)N[C@H]1CCCCNC(=O)CCCCCCC(=O)NCCCC[C@@H](C(=O)N[C@H](C(N)=O)[C@@H](C)O)NC(=O)[C@H](CCCCNC(=S)NCCC(=O)O)NC(=O)C[C@H](CCCNC(=N)N)NC1=O (Ac-K[β3hR][X67]KT-NH2; linker 1-4 via Suberoyl)
